US20200171042A1, “BRAIN-PENETRANT CHROMONE OXIME DERIVATIVE FOR THE THERAPY OF LEVODOPA-INDUCED DYSKINESIA” (Prexton Therapeutics SA, priority 2015, published 2020)

Columns and labels:
[1] = test system: MPTP macaque model of Parkinson's disease; assay: MPTP macaque model of advanced stages of PD; type: in vivo, Macaca fascicularis
Experimental: The anti-parkinsonian efficacy of the compound of formula (I) according to the present invention (i.e., PXT002331) was evaluated in the 1-methyl-4-phenyl-1,2,3,6-tetrahydropyridine (MPTP) macaque model of Parkinson's disease (using macaques of the species Macaca fascicularis), which reproduces most of the clinical and pathological hallmarks of Parkinson's disease and is considered a “gold standard” (see Porras G et al., Cold Spring Harb Perspect Med., 2(3):a009308, 2012 and references cited therein for a general description of the MPTP model). […] The anti-parkinsonian efficacy of PXT002331 (25 mg/kg) was further evaluated in combination with low (suboptimal) doses of L-dopa (levodopa; 4-9 mg/kg) (see FIGS. 5B and 5C). In this model, levodopa methyl ester was administered sub-cutaneously together with a fixed dose of benserazide (50 mg total), a peripherally-acting levodopa decarboxylase inhibitor. Doses of PXT002331 were orally administered twice a day during 4 days, and assessment of parkinsonian scores took place at day 4 (between 1 and 2 h after L-dopa administration, i.e., between 2 and 3 h after PXT002331 administration). […] The results of a dose-response evaluation of the combination of PXT002331 (at doses from 2 mg/kg to 100 mg/kg) with L-dopa (low dose) are shown in FIG. 5D (the assessment of parkinsonian scores took place at day 4).

[2] = test system: CLD MPTP macaque model of early-stage PD; assay: chronic low doses of MPTP (CLD MPTP) macaque model of early-stage PD; type: in vivo, Macaca fascicularis
Experimental: In this model, levodopa was administered orally as Madopar which contains benserazide hydrochloride (4:1 ratio of levodopa:benserazide), a peripherally-acting levodopa decarboxylase inhibitor. In this experiment, each monkey was equipped with a detector of movements and signals were collected with 24 light beams and a video track recorder in order to discriminate all types of movements. The movements of each monkey were quantified every 5 min using computer-based activity monitors. Total values are presented over 4 hours.

[3] = test system: CLD MPTP macaque model; assay: Variable Delayed Response (VDR) task, cognitive performance of CLD MPTP monkeys; type: in vivo, Macaca fascicularis
Excerpt: Monkeys that receive chronic low doses of MPTP administration (CLD MPTP macaque model) develop cognitive impairment, as measured in the Variable Delayed Response (VDR) task. It was therefore decided to evaluate the cognitive impact of PXT002331 in these animals, in order to assess potential side effects on cognitive symptoms.

[4] = in vivo pharmacokinetics in rats (plasma and brain exposure); parameters: species or system male Sprague-Dawley rats; conditions: rat
Experimental: PXT002331 and PXT001858 were administered per os (p.o.) at 10 mg/kg to male Sprague-Dawley rats. Volume of administration was 10 ml/kg. In parallel, PXT002331 was also administered intravenously (i.v.) at 1 mg/kg, with a volume of administration of 2 ml/kg. Blood samples (200 μl) were collected at time ranging from 15 minutes to 24 hours for the p.o. administration and from 5 minutes to 24 hours for the i.v. administration in ice-cold tubes containing 0.2% K2EDTA. Tubes were centrifuged at 10,000 rpm for 5 minutes at 4° C. The plasma (supernatant) was separated in another tube and stored at −80° C. until analysis. Two groups of 3 animals were used for each route of administration: in one group, blood samples were collected to determine the kinetics of plasma exposure over a 24-hour period, and in the second group, blood and brain were collected at one terminal time point (0.5, 1.0, 1.5, 2.0, 4.0 hours) to determine the kinetics of brain exposure and brain/plasma ratio.
The respective parent compound (free base) was analysed in plasma samples and in brain homogenate using a LC-MS/MS method. Concentrations are expressed in ng/ml of plasma or in ng/g of brain tissue.

[5] = target: human mGluR4 (Homo sapiens, UniProt Q14833); assay: calcium assay, agonistic and/or positive allosteric modulator activity; type: cell-based; conditions: read-out: EC50 (corresponding to pEC50) (converted)
Experimental: The compound of formula (I) according to the invention (i.e., PXT002331) was tested for its agonistic and/or positive allosteric modulator activity on human mGluR4 using the calcium assay described in Example 171 of WO 2011/051478.

[6] = phase I metabolic stability, CL (h); type: in vitro ADME; conditions: human; h of CL (h/r)
Experimental: (§1) The in vitro ADME profile of PXT002331 was also very similar with reference to phase I metabolic stability: CL (h/r): 55/101 μl/min/mg protein and intestinal absorption: CaCo-2 (A-B, pgp): 4.11 .10-6 cm/s, no efflux.

[7] = phase I metabolic stability, CL (r); type: in vitro ADME; conditions: rat; r of CL (h/r)
Experimental: as §1

[8] = intestinal absorption CaCo-2 (A-B, pgp); type: in vitro ADME; conditions: human, Caco-2; A-B
Experimental: as §1

[9] = test system: CaCo-2; assay: intestinal absorption CaCo-2 (A-B, pgp); type: in vitro ADME; conditions: pgp
Experimental: as §1

[10] = plasma protein binding; type: in vitro ADME; conditions: read-out: plasma protein binding, free fraction
[11] = solubility in water; type: physicochemical; conditions: as hydrochloride salt
[12] = test system: UGT (UDP-Glucuronosyl transferase); assay: in vitro glucuronidation in rat liver microsomes; type: in vitro ADME; conditions: in vitro in the presence of UGT
Experimental: Despite their similar oral absorption, PXT002331 has a higher brain/plasma ratio (6.5 versus 2.0 at T=1.5 h; see FIG. 4) leading to a 3-fold improvement in the brain AUC when compared to PXT001858. A posteriori, one potential hypothesis might rely on the difference of phase II conjugation in the intestine and liver during oral absorption. […] Nonetheless, this difference observed in vitro cannot by itself explain the unexpected advantageous PK results obtained with PXT002331. The results obtained in these experiments are furthermore summarized in Tables 1 to 3 below and in FIGS. 1 to 4.

[13] = test system: MPTP macaque model of L-DOPA-induced dyskinesia; assay: MPTP macaque model of L-DOPA-induced dyskinesia (LID); type: in vivo
Experimental: Like PD patients, MPTP macaques experience side effects of their long-term L-DOPA therapy, including L-DOPA-induced dyskinesia (LID). This was the case with the MPTP macaques that were at an advanced stage of parkinsonism used in this experiment. PXT002331 was tested in these monkeys, using the dose of 25 mg/kg in combination with L-DOPA.
Moreover, this was observed as early as day 1, which corresponds to an acute administration of PXT002331, and is maintained after a sub-chronic treatment (twice daily for 8 consecutive days). Importantly, the efficacy of L-DOPA for reducing parkinsonian symptoms (tremor, posture, mobility) was maintained in association with PXT002331 dose, as shown in FIG. 9B.

[14] = test system: MPTP macaques; assay: general behavior, adverse events in MPTP macaques; type: in vivo, Macaca fascicularis; conditions: alone or with L-DOPA, even at high doses
Experimental: Adverse events and side effects of PXT002331 were analyzed during each study performed in macaques (see Example 3).

[15] = p.o. 10 mg/kg, vehicle Tween-80/Ethanol/30% HPBCD (2/10/88)

human mGluR4, sequence (Q14833 33-912): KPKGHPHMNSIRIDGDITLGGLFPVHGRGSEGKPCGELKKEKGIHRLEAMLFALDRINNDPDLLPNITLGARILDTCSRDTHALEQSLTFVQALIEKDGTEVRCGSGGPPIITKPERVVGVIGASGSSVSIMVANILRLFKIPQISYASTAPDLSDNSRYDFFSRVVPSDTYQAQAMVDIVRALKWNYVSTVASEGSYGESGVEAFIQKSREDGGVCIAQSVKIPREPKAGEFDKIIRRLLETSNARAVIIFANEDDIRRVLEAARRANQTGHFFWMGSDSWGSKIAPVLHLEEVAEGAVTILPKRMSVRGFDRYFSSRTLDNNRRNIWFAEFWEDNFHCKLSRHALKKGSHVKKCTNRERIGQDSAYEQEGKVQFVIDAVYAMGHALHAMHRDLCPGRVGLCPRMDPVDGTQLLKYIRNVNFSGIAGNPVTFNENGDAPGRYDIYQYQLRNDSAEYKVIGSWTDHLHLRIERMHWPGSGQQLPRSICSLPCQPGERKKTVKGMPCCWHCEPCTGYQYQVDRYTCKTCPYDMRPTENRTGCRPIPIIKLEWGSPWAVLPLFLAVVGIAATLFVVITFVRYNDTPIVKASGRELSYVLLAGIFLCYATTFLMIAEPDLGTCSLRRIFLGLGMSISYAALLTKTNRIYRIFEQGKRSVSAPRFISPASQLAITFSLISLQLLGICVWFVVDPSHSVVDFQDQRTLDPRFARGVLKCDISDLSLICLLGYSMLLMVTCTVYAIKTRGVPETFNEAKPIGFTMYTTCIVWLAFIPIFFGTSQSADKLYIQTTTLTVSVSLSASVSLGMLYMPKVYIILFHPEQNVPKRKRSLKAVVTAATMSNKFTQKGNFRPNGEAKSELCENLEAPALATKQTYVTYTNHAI

N[C@@H](Cc1ccc(O)c(O)c1)C(=O)O [L-DOPA, L-3,4-dihydroxyphenylalanine, reference compound]
dyskinesia (mean dyskinesia score) ([1]; highest doses of L-DOPA): very mild
dyskinesia ([1]; sub-optimal doses of L-DOPA): weak or absent
induction of dyskinesia ([2]; L-DOPA alone, model of early stage PD): did not induce dyskinesia
omissions in VDR task ([3]; one out of four animals, optimal dose of L-DOPA alone): ~100%

O/N=c1\cc(-c2cc3sccc3cn2)oc2ccc(OCCN3CCOCC3)cc12 [PXT001858, reference compound]
Brain AUC inf ([4]; oral 10 mg/kg): 838 ng·h/g
Cmax (Brain) ([4]; oral 10 mg/kg): 521 ng/G tissue

O/N=c1\cc(-c2cc3sccc3cn2)oc2ccc(CCCN3CCOCC3)cc12 [PXT002331, 6-(3-morpholin-4-yl-propyl)-2-(thieno[3,2-c]pyridin-6-yl)-4H-chromen-4-one oxime]
EC50 [5]: ~76 nM
microsomal CLint [6]: 55 µL/min/mg
microsomal CLint [7]: 101 µL/min/mg
Papp A→B [8]: 4.11 ×10⁻⁶ cm/s
CaCo-2 efflux [9]: no efflux
fraction unbound [10]: < 0.01
solubility [11]: > 10000 µg/mL
Kp at 1.5 h ([4]; male, Sprague-Dawley, brain, oral 10 mg/kg, T = 1.5 h, read-out: Brain/Plasma ratio (T = 1.5 h)): 6.5
bioavailability ([4]; male, Sprague-Dawley, plasma, oral, p.o. 10 mg/kg vs i.v. 1 mg/kg): 39%
AUC(0-inf) ([4]; male, Sprague-Dawley, plasma, oral 10 mg/kg): 432 ng·h/mL
Brain AUC inf ([4]; oral 10 mg/kg): 2713 ng·h/g
Cmax (Brain) ([4]; oral 10 mg/kg): 818 ng/G tissue
improvement in brain AUC compared to PXT001858 ([4]; oral 10 mg/kg): 3 fold
plasma exposure AUC relative to PXT001858 [4, 15]: 1.1 fold
plasma exposure Cmax relative to PXT001858 [4, 15]: 0.7 fold
level of glucuronidation compared to PXT001858 [12]: much lower level of glucuronidation
robustness: monkeys improving in parkinsonian score ([1]; PXT002331 25 mg/kg + low dose L-dopa, day 4): all treated monkeys showed a significant improvement in parkinsonian score
parkinsonian score versus L-dopa (suboptimal dose) alone ([1]; PXT002331 25 mg/kg p.o. twice a day 4 days + suboptimal L-dopa 4-9 mg/kg, day 4): considerable improvement in parkinsonian score
anti-parkinsonian effect, dose-response evaluation ([1]; PXT002331 2 to 100 mg/kg oral + L-dopa (low dose), day 4): highly potent anti-parkinsonian effect
induction of dyskinesia ([1]; PXT002331 alone, any of the doses tested, more advanced stages of PD): did not induce dyskinesia
change of dyskinesia by PXT002331 treatment ([1]; added to sub-optimal doses of L-DOPA, any dose tested): not increased
anti-parkinsonian activity (parkinsonian score) ([1]; stand-alone treatment, p.o. twice a day for 4 days, score at day 4 over 2 h, n=7): potent anti-parkinsonian activity
induction of dyskinesia ([2]; CLD MPTP macaques, PXT002331 alone or in combination with any doses of L-DOPA tested): no induction of dyskinesia
robustness: monkeys responding in locomotor activity ([2]; PXT002331 25 mg/kg + L-dopa): each and every monkey included in the study responded
locomotor activity ([2]; PXT002331 25 mg/kg oral + low or optimal dose of L-dopa (Madopar), total over 4 hours, N=5): significant improvement in locomotor activity
induction of dyskinesia ([2]; PXT002331 25 to 100 mg/kg + optimal (high) dose of L-dopa): without inducing dyskinesia
disability score ([2]; increasing doses of PXT002331 + L-dopa (optimal dose)): improvement in the disability score
worsening of cognitive performances in VDR task ([3]; PXT002331 25 mg/kg alone or in combination with L-DOPA, N=4): none of the treatments with PXT002331, alone or in combination with L-DOPA, induced any worsening of the cognitive performances
omission rate in VDR task, change on adding PXT002331 ([3]; one out of four animals, PXT002331 25 mg/kg added to optimal dose of L-DOPA): decreased by half
dyskinesia (mean dyskinesia score over 2 hours) ([13]; PXT002331 25 mg/kg + L-DOPA, 30 min before or same time, day 1 and day 8 (twice daily)): clear reduction of dyskinesia
robustness: dyskinetic monkeys responding ([13]; PXT002331 25 mg/kg + L-DOPA, N=4 dyskinetic animals): each and every dyskinetic monkey included in the study responded to treatment
efficacy of L-DOPA for reducing parkinsonian symptoms (tremor, posture, mobility) ([13]; in association with PXT002331 25 mg/kg): maintained
adverse change in behavior (circling, excitement, lethargy, sleepiness) [14]: never induced any apparent adverse change in behavior
